From patent publication US9527807B2, “Sulfonamide derivative and use thereof” (Takeda Pharmaceutical Company Limited, priority 2011, dated 2016)

Experiments:
[1] = system: MAP-induced hyperlocomotion in mice; assay: Inhibition of methamphetamine (MAP)-induced hyperlocomotion; format: in vivo; settings: male ICR mice; compound 10 mg/kg p.o. 60 min before MAP 2 mg/kg s.c.; counts 0-120 min after MAP; Welch's t-test; FIG. 1
Procedure: Male ICR mice were supplied by CLEA Japan, Inc (Japan). After arrival to the vivarium, animals were allowed a minimum of 1 week for acclimation. They were housed under a 12:12-h light/dark cycle in a temperature- and humidity-controlled laboratory and allowed food and water ad libitum.
A test compound was suspended in 0.5% methylcellulose in distilled water and orally administered (p.o.). Methamphetamine (Dainippon Sumitomo Pharma Co., Ltd.) was dissolved in saline and subcutaneously administered (s.c.). All drugs were dosed in a volume of 10 mL/kg body weight for mice.
The widely used animal models of psychosis have been the measurement of the extent of hyperlocomotion induced by psychostimulants (e.g., amphetamine, cocaine, methamphetamine, MK-801 and phencyclidine) in rodents (Psychopharmacology 1999, vol. 145: 237-250). 2 compounds (A and B) were tested for its ability to antagonize MAP-induced hyperlocomotion in mice. Male ICR mice were habituated in the locomotor chambers with infrared sensors (BrainScienceIdea Co., Ltd. Japan) to the experiment. […] Locomotion activities were measured, and accumulated counts (120 min after administration of MAP) were calculated in each treatment group. All data were represented as means plus the standard errors of the means (n=3-8) and analyzed using Welch's t-test with significance set at ^$P<0.05, ^$$P<0.01 and ^$$$P<0.001. […]

[2] = system: methamphetamine (MAP)-induced hyperlocomotion; assay: methamphetamine (MAP)-induced hyperlocomotion; format: in vivo; settings: FIG. 1
[3] = target: T1, AMPA receptor (human GluR1 flip/stargazin expressed in CHO-K1 cells) (Homo sapiens, UniProt P42261); assay: AMPA receptor function enhancing activity using calcium influx as index; format: cell-based; settings: change in fluorescence level in 3 min, 100% = 3 mM glutamic acid + 300 μM cyclothiazide, 0% = 3 mM glutamic acid only
T1 construct: expressed in transfected cells; host or cells: CHO-K1
T1 sequence (P42261 19-906 isoform P42261-2 limits assumed): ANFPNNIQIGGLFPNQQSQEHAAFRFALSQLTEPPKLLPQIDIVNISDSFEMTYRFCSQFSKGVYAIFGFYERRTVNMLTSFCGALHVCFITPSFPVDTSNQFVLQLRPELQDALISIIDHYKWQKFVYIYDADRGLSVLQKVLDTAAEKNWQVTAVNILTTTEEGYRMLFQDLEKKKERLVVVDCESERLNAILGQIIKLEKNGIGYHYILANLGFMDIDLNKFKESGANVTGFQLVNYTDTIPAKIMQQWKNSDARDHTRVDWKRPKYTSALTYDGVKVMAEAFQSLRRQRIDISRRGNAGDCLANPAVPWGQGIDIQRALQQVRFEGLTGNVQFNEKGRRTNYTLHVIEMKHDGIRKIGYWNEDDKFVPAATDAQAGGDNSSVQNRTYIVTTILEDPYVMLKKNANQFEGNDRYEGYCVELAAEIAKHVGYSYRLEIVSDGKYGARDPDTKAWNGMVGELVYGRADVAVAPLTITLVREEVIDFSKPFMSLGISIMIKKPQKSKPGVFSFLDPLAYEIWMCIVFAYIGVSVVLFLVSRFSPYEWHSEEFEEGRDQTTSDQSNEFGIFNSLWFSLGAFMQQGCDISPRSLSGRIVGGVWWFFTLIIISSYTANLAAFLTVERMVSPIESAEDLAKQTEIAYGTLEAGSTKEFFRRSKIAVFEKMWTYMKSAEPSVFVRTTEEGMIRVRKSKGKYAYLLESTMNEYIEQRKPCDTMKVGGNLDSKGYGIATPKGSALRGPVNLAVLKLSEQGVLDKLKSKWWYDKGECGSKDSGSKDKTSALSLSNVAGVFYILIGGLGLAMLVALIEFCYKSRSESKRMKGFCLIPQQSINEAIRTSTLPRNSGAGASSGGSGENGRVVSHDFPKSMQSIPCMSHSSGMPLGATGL
T1 sequence (Q9Y698 whole entry partner): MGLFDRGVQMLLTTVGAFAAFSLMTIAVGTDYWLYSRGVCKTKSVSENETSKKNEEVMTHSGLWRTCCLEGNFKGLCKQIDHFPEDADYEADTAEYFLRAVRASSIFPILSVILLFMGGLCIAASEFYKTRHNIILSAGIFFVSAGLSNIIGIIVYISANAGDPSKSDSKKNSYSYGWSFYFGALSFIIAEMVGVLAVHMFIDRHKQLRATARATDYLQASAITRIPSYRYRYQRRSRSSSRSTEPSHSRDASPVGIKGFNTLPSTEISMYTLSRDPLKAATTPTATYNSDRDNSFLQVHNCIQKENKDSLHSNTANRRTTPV
In short: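 CHO-K1 cells co-expressing human GluR1 flip and stargazin, Calcium 4 dye with 1.25 mM probenecid; compound added with glutamate (3 mM final), fluorescence change over 3 min. Activity (%) scaled between 3 mM glutamate alone (0%) and glutamate plus 300 μM cyclothiazide (100%).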

| SMILES | inhibition of MAP-induced hyperlocomotion (accumulated locomotion counts) [1] | inhibition of methamphetamine (MAP)-induced hyperlocomotion [2] | activity (%) [3] [%] |
| --- | --- | --- | --- |
| CCS(=O)(=O)N[C@H]1CCOC[C@@H]1COc1ccc(-n2cc(Cl)cn2)cc1F [compound B, N-[(3R,4S)-3-{[4-(4-chloro-1H-pyrazol-1-yl)-2-fluorophenoxy]methyl}tetrahydro-2H-pyran-4-yl]ethanesulfonamide] | significant inhibition | inhibition | – |
| CS(=O)(=O)N[C@H]1CCOC[C@@H]1COc1ccc(-n2cc(Cl)cn2)cc1 [compound A, N-[(3R,4S)-3-{[4-(4-chloro-1H-pyrazol-1-yl)phenoxy]methyl}tetrahydro-2H-pyran-4-yl]methanesulfonamide] | significant inhibition | inhibition | – |
| CN(C)S(=O)(=O)N[C@H]1CCOC[C@@H]1COc1ccc(-n2cc(Cl)cn2)cc1 (racemic) [Example 279, N′-[(3RS,4SR)-3-{[4-(4-chloro-1H-pyrazol-1-yl)phenoxy]methyl}tetrahydro-2H-pyran-4-yl]-N,N-dimethylsulfamide] | – | – | 79 |
| CCS(=O)(=O)N[C@H]1COCC[C@@H]1COc1ccc(C(C)C)cc1 (relative stereo) [Example 95, trans-N-[4-{[4-(1-methylethyl)phenoxy]methyl}tetrahydro-2H-pyran-3-yl]ethanesulfonamide] | – | – | 73 |
| CS(=O)(=O)N[C@H]1CCCO[C@@H]1COc1ccc(-c2ccc(C#N)cn2)cc1 (racemic) [Example 164, 1,5-anhydro-6-O-[4-(5-cyanopyridin-2-yl)phenyl]-2,3,4-trideoxy-4-[(methylsulfonyl)amino]-DL-erythro-hexitol] | – | – | 76 |
| Cc1nc(-c2ccc(OC[C@H]3COCC[C@@H]3NS(C)(=O)=O)cc2)cs1 (racemic) [Example 263, N-[(3RS,4SR)-3-{[4-(2-methyl-1,3-thiazol-4-yl)phenoxy]methyl}tetrahydro-2H-pyran-4-yl]methanesulfonamide] | – | – | 66 |
| CCS(=O)(=O)N[C@H]1CCCO[C@@H]1COc1ccc(-c2ncc(F)cn2)cc1 [Example 399, 1,5-anhydro-2,3,4-trideoxy-4-[(ethylsulfonyl)amino]-6-O-[4-(5-fluoropyrimidin-2-yl)phenyl]-D-erythro-hexitol] | – | – | 94 |
| CCS(=O)(=O)N[C@H]1CCC(F)(F)C[C@@H]1COc1ccc(-n2cccn2)cc1 (relative stereo) [Example 130, trans-N-[4,4-difluoro-2-{[4-(1H-pyrazol-1-yl)phenoxy]methyl}cyclohexyl]ethanesulfonamide] | – | – | 90 |
| CS(=O)(=O)N[C@H]1COCC[C@@H]1COc1ccc(-n2cc(Cl)cn2)cc1F [Example 207, N-[(3R,4S)-4-{[4-(4-chloro-1H-pyrazol-1-yl)-2-fluorophenoxy]methyl}tetrahydro-2H-pyran-3-yl]methanesulfonamide] | – | – | 74 |
| CCS(=O)(=O)N[C@H]1CCOC[C@@H]1COc1ccc(C(C)=O)cc1 (relative stereo) [Example 135, trans-N-{3-[(4-acetylphenoxy)methyl]tetrahydro-2H-pyran-4-yl}ethanesulfonamide] | – | – | 88 |
| CCS(=O)(=O)N[C@H]1CCSC[C@@H]1COc1ccc(-n2cc(C#N)cn2)cc1 [Example 522, N-((3S,4S)-3-((4-(4-cyano-1H-pyrazol-1-yl)phenoxy)methyl)tetrahydro-2H-thiopyran-4-yl)ethanesulfonamide] | – | – | 95 |
